# Where two headings read alike, the source gives them in different places.
# Experiments:
# [1] = tested on: EGFR-overexpressed A431 cells; test: Cellular growth of EGFR-overexpressed A431 cells; assay type: cell-based
# [2] = tested on: activated primary human B cells; test: Surface activation marker expression by activated B cells (flow cytometry); assay type: cell-based; settings: B-cell, anti-IgM F(ab')2 for 24 h
# Procedure: Human PBMCs (10^6 cells/mL) were allowed to rest at 37 °C for 2 h. […] To examine changes in the expression of surface activation markers, cells were stained with anti-CD3-FITC (SK7; BD Biosciences), anti-CD19-PE (HIB19; BD Biosciences), anti-CD40-PE-Cy7 (5C3; BD Biosciences), anti-CD69-V450 (FN50; BD Biosciences), and anti-CD86-PerCP-Cy5.5 (2331 (FUN-1); BD Biosciences) antibodies.
# BTK [3] = biological target: T1, BTK (Homo sapiens, UniProt Q06187); test: Btk occupancy in human PBMCs (biotinylated probe); assay type: cell-based; settings: primary human cells (PBMCs), 100 nM
# Procedure: After treatment with HM71224, cells were lysed and then incubated for 1 h with 1 μM of biotinylated probe (HM71224 derivative). The lysed cells were loaded into streptavidin-coated wells and then incubated with an anti-Btk antibody (1:1000; clone number D3H5, Cell signaling Technology, Danvers, MA, USA) for 1 h, followed by a secondary HRP-conjugated antibody (1:10000; EMD Millipore Corporation, Billerica, MA, USA) at room temperature for 1 h. After washing, 100 μL of colorimetric solution (R&D systems, Minneapolis, MN, USA) was added, and the reaction was stopped 30 minutes later by addition of 100 μL of sulfuric acid (0.2 moles/L). The plate was read with the absorbance reader at 450 nm.
# To measure Btk occupancy by immunoprecipitation (IP), biotinylated HM71224 probes were preincubated with cell lysates for 1 h at 4 °C. Streptavidin-coated beads were then added, and the mixture was incubated overnight at 4 °C. Immunoblotting was then performed, and band density was measured using MultiGauge V3.0 software (FUJI FILM, Tokyo, Japan). Untreated biotinylated probes were set at 100 %.
# human CD14+ monocytes = test: Osteoclast formation from human CD14+ cells (TRAP staining); assay type: cell-based; settings: Monocyte, 1000 nM
# Procedure: Isolated human CD14 cells (1 × 10^5 cells per well) were cultured in a 96-well plate at 37 °C in alpha-minimum essential medium (MEM) supplemented with 10 % FBS and 25 ng/mL M-CSF (Sigma-Aldrich) in the presence of increasing concentrations of HM71224. RANKL (100 ng/mL, Sigma-Aldrich) was added after 3 days. The medium was replaced every 3 days. On day 9, cells were fixed with 3 % formaldehyde and stained for tartrate-resistant acid phosphatase (TRAP) expression (Sigma-Aldrich). To drive osteoclast formation from bone morrow cells, BMMs (4 × 10^4 per well) were stimulated with 30 ng/mL M-CSF and 100 ng/mL RANKL in the presence of increasing concentrations of HM71224 for 4 days. TRAP+ cells with three or more nuclei were counted as osteoclasts.
# [4] = tested on: murine bone marrow-derived macrophages; test: Osteoclast formation from murine BMMs (TRAP staining); assay type: cell-based, mouse; settings: M-CSF and RANKL, 4 days
# JAK3 = JAK3 (Homo sapiens, UniProt P52333); test: biochemical
# BTK [5] = biological target: T1, BTK; test: Kinome Binding Tree Spot analysis, Scan Max (DiscoveRx); set-up: purchased DiscoveRx (Scan Max panel); settings: concentration of 2 μM
# BTK [6] = biological target: T1, BTK; test: FRET-based Z'-Lyte kinase assay; set-up: purchased ThermoFisher Scientific (contract research organization); settings: read-out: Biochemical Inhibition, IC50
# Text: (§1) To determine the biochemical selectivity of HM71224, we tested more than 85 kinases using the fluorescence resonance energy transfer (FRET) method.
# EGFR [7] = biological target: T2, EGFR (Homo sapiens, UniProt P00533); test: FRET-based Z'-Lyte kinase assay; set-up: purchased ThermoFisher Scientific (contract research organization); settings: read-out: Biochemical Inhibition, IC50
# Text: as §1
# EGFR [8] = biological target: T2, EGFR; test: Phosphorylation of EGFR in cells; assay type: cell-based; set-up: EGFR-overexpressing epidermoid carcinoma A431 cell line; endogenous in cells; host or cells: A431; settings: cellular; read-out: IC50 on inhibiting EGFR phosphorylation
# T1 sequence (Q06187 whole entry): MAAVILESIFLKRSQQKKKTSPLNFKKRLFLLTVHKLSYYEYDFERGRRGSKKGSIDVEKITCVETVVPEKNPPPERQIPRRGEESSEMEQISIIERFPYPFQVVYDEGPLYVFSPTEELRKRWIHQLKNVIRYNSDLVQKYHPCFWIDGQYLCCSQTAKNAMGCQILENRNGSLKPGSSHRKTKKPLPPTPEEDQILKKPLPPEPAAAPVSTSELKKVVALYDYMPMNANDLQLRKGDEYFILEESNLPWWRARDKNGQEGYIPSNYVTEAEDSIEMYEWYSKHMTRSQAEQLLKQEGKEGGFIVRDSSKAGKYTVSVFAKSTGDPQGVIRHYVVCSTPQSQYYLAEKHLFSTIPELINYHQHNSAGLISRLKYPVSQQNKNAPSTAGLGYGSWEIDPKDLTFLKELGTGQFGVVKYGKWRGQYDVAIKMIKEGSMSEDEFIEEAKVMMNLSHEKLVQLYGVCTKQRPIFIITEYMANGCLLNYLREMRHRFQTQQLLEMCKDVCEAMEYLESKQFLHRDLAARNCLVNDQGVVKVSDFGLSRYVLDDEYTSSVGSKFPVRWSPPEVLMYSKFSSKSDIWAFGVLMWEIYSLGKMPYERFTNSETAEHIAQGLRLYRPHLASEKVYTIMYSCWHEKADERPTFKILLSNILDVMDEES
# T2 sequence (P00533 25-1210): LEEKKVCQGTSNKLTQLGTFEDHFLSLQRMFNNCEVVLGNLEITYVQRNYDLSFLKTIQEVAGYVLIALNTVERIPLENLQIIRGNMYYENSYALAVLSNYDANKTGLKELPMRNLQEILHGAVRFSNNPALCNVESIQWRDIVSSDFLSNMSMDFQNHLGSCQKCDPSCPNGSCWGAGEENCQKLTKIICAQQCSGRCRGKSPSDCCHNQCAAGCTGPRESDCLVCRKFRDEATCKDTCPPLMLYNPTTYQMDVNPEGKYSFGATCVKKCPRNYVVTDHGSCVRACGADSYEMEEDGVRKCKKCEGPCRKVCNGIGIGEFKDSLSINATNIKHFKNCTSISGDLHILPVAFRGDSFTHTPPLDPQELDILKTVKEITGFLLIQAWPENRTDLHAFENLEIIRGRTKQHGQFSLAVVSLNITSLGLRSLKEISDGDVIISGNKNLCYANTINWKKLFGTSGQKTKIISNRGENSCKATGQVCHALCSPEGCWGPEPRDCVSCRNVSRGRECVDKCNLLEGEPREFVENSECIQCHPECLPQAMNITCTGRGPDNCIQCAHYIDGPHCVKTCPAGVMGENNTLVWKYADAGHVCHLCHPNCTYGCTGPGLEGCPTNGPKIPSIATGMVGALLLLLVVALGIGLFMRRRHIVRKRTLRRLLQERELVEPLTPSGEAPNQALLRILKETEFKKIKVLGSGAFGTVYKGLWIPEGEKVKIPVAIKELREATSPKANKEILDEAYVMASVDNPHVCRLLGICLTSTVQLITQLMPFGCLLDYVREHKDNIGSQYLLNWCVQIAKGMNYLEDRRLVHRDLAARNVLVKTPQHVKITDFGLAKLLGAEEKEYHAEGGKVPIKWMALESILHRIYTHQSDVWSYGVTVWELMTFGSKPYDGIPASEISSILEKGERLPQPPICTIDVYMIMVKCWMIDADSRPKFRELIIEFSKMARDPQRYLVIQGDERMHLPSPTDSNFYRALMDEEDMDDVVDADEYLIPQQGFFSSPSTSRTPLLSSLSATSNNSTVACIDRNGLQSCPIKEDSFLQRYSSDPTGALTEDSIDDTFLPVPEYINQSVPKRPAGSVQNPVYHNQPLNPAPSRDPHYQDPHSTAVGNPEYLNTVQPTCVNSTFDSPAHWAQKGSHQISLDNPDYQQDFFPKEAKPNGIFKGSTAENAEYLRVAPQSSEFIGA
# Chain of JAK3 (P52333 whole entry): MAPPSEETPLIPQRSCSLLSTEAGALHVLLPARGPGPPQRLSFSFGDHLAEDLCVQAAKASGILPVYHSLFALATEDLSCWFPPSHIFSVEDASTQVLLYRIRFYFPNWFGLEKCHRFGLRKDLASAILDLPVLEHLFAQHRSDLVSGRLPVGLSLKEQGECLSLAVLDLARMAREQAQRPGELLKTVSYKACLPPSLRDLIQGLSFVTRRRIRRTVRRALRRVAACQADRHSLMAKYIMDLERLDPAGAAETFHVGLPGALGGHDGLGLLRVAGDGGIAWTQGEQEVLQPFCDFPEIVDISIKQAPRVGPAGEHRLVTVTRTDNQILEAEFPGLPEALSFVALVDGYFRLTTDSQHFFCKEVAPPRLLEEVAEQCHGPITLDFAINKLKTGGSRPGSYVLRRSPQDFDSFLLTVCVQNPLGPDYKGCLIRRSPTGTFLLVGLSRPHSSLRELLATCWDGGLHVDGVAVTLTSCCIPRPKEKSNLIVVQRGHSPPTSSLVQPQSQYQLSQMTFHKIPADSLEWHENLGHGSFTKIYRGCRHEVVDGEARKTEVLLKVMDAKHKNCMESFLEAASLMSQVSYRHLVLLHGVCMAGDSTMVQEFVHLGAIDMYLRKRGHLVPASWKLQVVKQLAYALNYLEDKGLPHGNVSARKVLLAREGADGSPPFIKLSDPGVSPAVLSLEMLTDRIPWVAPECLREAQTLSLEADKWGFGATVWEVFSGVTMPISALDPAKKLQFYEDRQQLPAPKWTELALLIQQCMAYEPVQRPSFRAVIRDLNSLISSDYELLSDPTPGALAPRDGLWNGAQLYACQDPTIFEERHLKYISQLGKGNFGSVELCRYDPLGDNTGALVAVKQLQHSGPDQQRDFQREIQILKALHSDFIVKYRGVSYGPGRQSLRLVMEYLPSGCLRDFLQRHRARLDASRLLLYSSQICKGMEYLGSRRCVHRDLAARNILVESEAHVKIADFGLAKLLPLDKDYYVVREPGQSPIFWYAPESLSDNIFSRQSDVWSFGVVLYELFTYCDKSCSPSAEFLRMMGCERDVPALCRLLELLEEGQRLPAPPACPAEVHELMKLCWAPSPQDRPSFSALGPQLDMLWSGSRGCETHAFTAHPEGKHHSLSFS
smiles,measurement,setting,value
C=CC(=O)Nc1cccc(Oc2nc(Nc3ccc(N4CCN(C)CC4)cc3)nc3ccoc23)c1 [HM71224],GI50,"[1]; Homo sapiens, A-431, read-out: GI50, concentration to inhibit 50 % of cellular growth, EGFR-overexpressed A431 cells",1000 nM
same,GI50,"[1]; read-out: GI50, concentration to inhibit 50 % of cellular growth, EGFR-overexpressed A431 cells",> 1000 nM
same,IC50,"[2]; read-out: IC50, surface expression of CD40",4.2 nM
same,IC50,"[2]; read-out: IC50, surface expression of CD69",4.2 nM
same,IC50,"[2]; read-out: IC50, surface expression of CD86",7.7 nM
same,Btk sites occupied,BTK [3],> 70%
same,inhibition at 1 µM,human CD14+ monocytes,~50%
same,Osteoclast formation from murine BMMs,[4],inhibited osteoclast formation from murine BMMs
same,IC50,JAK3,14.6 nM
same,Kinome binding selectivity,BTK [5],selectively bound to Btk
same,IC50,BTK [6],1.95 nM
same,IC50,EGFR [7],4.96 nM
same,IC50,EGFR [8],800 nM

# From publication PMC4835877, “HM71224, a novel Bruton’s tyrosine kinase inhibitor, suppresses B cell and monocyte activation and ameliorates arthritis in a mouse model: a potential drug for rheumatoid arthritis” (Arthritis Research & Therapy, 2016)
